Target: T1, gastrin (CCK2) receptors (Rattus norvegicus, UniProt P30553)
T1 construct: The stomach was excised and flushed with ca. 1 ml of unbuffered physiological saline solution; from tissue; host or cells: isolated whole stomach of immature rats (ca. 21 days old)
T1 sequence (P30553 1-452): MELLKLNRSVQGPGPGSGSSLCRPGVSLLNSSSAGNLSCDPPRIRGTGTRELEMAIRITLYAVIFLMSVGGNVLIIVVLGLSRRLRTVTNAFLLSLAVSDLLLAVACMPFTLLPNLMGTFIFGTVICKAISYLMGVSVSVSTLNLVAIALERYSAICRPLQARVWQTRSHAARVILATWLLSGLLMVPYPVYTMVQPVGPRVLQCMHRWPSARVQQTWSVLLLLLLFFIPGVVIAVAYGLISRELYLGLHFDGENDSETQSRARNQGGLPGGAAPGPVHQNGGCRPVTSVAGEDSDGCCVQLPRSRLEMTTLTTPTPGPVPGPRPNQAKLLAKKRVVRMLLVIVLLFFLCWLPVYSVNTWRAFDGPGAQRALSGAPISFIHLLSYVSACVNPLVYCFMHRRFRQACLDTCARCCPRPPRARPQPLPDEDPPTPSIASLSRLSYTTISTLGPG
Experiment: gastrin (CCK2) antagonist activity in an immature rat stomach assay
Conditions: pentagastrin dose-response curves, acid secretion, read-out: pKB rat stomach (converted)
Procedure: The compounds of the examples were tested for gastrin (CCK2) antagonist activity in an immature rat stomach assay. The procedure was as follows:
The oesophagus of immature rats (33-50 g, ca. 21 days old) was ligated at the level of the cardiac sphincter and the duodenal sphincter was cannulated. The stomach was excised and flushed with ca. 1 ml of unbuffered physiological saline solution. The fundus was punctured and cannulated. A further 4-5 ml of unbuffered solution was flushed through the stomach to ensure the preparation was not leaking. […] The stomach was continuously perfused at a rate of 1 ml min^−1 with unbuffered solution gassed with 100% O2 with the perfusate passing over an internally referenced pH-electrode fixed 12 cm above the stomach.
After 120 min of stabilisation the drugs were added directly to the serosal solution in the organ bath and after a further 60 min cumulative pentagastrin dose-response curves were started.

Kb [nM]	Compound
75.9	CC(C)(C)C(=O)CN1C(=O)N(CC(=O)Nc2cccc(C(=O)O)c2)N=C(C2CCCC2)c2ccccc21 [Example 9, 3-{2-[5-Cyclopentyl-1-(3,3-dimethyl-2-oxo-butyl)-2-oxo-1,2-dihydro-3H-1,3,4-benzotriazepin-3-yl]-acetylamino}-benzoic acid]
2.82	COC(=O)c1cccc(NC(=O)CN2N=C(C3CCCCC3)c3ccccc3N(CC(=O)C(C)(C)C)C2=O)c1 [Example 1, 3-{2-[5-Cyclohexyl-1-(3,3-dimethyl-2-oxo-butyl)-2-oxo-1,2-dihydro-3H-1,3,4-benzotriazepin-3-yl]-acetylamino}-benzoic acid methyl ester]
27.5	CNc1cc(NC(=O)CN2N=C(C3CCCCC3)c3ccccc3N(CC(=O)C(C)(C)C)C2=O)ccc1OC [Example 105, 2-[5-Cyclohexyl-1-(3,3-dimethyl-2-oxo-butyl)-2-oxo-1,2-dihydro-3H-1,3,4-benzotriazepin-3-yl]-N-(4-methoxy-3-methylamino-phenyl)-acetamide]
155	CC(C)(C)C(=O)CN1C(=O)N(CC(=O)Nc2ccc3ncn(CC(=O)O)c3c2)N=C(C2CCCCC2)c2ccccc21 [Example 94, (6-{2-[5-Cyclohexyl-1-(3,3-dimethyl-2-oxo-butyl)-2-oxo-1,2-dihydro-3H-1,3,4-benzotriazepin-3-yl]-acetylamino)-benzimidazol-1-yl)-acetic acid]
8.32	CC(C)(C)C(=O)CN1C(=O)N(CC(=O)Nc2cccc(/C=C3\SC(=O)NC3=O)c2)N=C(C2CCCCC2)c2ccccc21 [Example 147, 2-[5-Cyclohexyl-1-(3,3-dimethyl-2-oxo-butyl)-2-oxo-1,2-dihydro-3H-1,3,4-benzotriazepin-3-yl]-N-[3-(2,4-dioxo-thiazolidin-5-ylidenemethyl)-phenyl]-acetamide]
0.851	CC(C)(C)C(=O)CN1C(=O)N(CC(=O)Nc2ccc3ccn(CC(=O)O)c3c2)N=C(C2CCCCC2)c2ccccc21 [Example 70, (6-{2-[5-Cyclohexyl-1-(3,3-dimethyl-2-oxo-butyl)-2-oxo-1,2-dihydro-3H-1,3,4-benzotriazepin-3-yl]-acetylamino}-indol-1-yl)-acetic acid]
240	CNc1cccc(NC(=O)CN2N=C(c3ccccn3)c3ccccc3N(CC(=O)C(C)(C)C)C2=O)c1 [Example 5, 2-[1-(3,3-Dimethyl-2-oxo-butyl)-2-oxo-5-pyridin-2-yl-1,2-dihydro-3H-1,3,4-benzotriazepin-3-yl]-N-(3-methylamino-phenyl)-acetamide]
3.16	CC1(C(=O)CN2C(=O)N(CC(=O)Nc3cccc(-c4nc(=O)o[nH]4)c3)N=C(C3CCCCC3)c3ccccc32)CCCC1 [Example 87]
77.6	CC(C)(C)C(=O)CN1C(=O)N(CC(=O)Nc2cccc(Cc3nnn[nH]3)c2)N=C(C2CCCCC2)c2ccccc21 [Example 67, 2-[5-Cyclohexyl-1-(3,3-dimethyl-2-oxo-butyl)-2-oxo-1,2-dihydro-3H-1,3,4-benzotriazepin-3-yl]-N-[3-(1H-tetrazol-5-ylmethyl)-phenyl]-acetamide]
17	CC(C)(C)C(=O)CN1C(=O)N(CC(=O)Nc2cccc(C(=O)O)c2)N=C(C23CC4CC(CC(C4)C2)C3)c2ccccc21 [Example 54, 3-{2-[5-Adamantan-1-yl-1-(3,3-dimethyl-2-oxo-butyl)2-oxo-1,2-dihydro-3H-1,3,4-benzotriazepin-3-yl]-acetylamino}-benzoic acid]
7.59	CC(C)(C)C(=O)CN1C(=O)N(CC(=O)Nc2cc(C(=O)O)cc(C(=O)O)c2)N=C(C2CCCCC2)c2ccccc21 [Example 39, 5-{2-[5-Cyclohexyl-1-(3,3-dimethyl-2-oxo-butyl)-2-oxo-1,2-dihydro-3H-1,3,4-benzotriazepin-3-yl]-acetylamino}-isophthalic acid]
35.5	Cc1cccc2c1C(C1CCCCC1)=NN(CC(=O)Nc1cccc(C(=O)O)c1)C(=O)N2CC(=O)C(C)(C)C [Example 114, 3-{2-[5-Cyclohexyl-1-(3,3-dimethyl-2-oxo-butyl)-6-methyl-2-oxo-1,2-dihydro-3H-1,3,4-benzotriazepin-3-yl]-acetylamino}-benzoic acid]
27.5	CC(C)(C)C(=O)CN1C(=O)N(CC(=O)Nc2ccc3c(ccn3CC(=O)O)c2)N=C(C2CCCCC2)c2ccccc21 [Example 117, (5-{2-[5-Cyclohexyl-1-(3,3-dimethyl-2-oxo-butyl)-2-oxo-1,2-dihydro-3H-1,3,4-benzotriazepin-3-yl]-acetylamino}-indol-1-yl)-acetic acid]
2.88	O=C(CN1N=C(C2CCCCC2)c2ccccc2N(CC(=O)C2CCCC2)C1=O)Nc1cccc(-c2csc(C(=O)O)n2)c1 [Example 137, 4-(3-{2-[5-Cyclohexyl-1-(2-cyclopentyl-2-oxo-ethyl)-2-oxo-1,2-dihydro-3H-1,3,4-benzotriazepin-3-yl]-acetylamino}-phenyl)-thiazole-2-carboxylic acid]
3.8	CC(C)(C)C(=O)CN1C(=O)N(CC(=O)Nc2cccc(CSCC(=O)O)c2)N=C(C2CCCCC2)c2ccccc21 [Example 71, (3-{2-[5-Cyclohexyl-1-(3,3-dimethyl-2-oxo-butyl)-2-oxo-1,2-dihydro-3H-1,3,4-benzotriazepin-3-yl]-acetylamino}-benzylsulfanyl)-acetic acid]
91.2	CN(C)c1cccc(NC(=O)CN2N=C(C3CCCCC3)c3ccccc3N(CC(=O)C(C)(C)C)C2=O)c1 [Example 33, 2-[5-Cyclohexyl-J-(3,3-dimethyl-2-oxo-butyl)-2-oxo-1,2-dihydro-3H-1,3,4-benzotriazepin-3-yl]-N-(3-dimethylamino-phenyl)-acetamide]
11.2	CC(C)(C)C(=O)CN1C(=O)N(CC(=O)Nc2cccc(-c3nn[nH]n3)c2)N=C(C2CCCCC2)c2ccccc21 [Example 23, 2-[5-Cyclohexyl-1-(3,3-dimethyl-2-oxo-butyl)-2-oxo-1,2-dihydro-3H-1,3,4-benzotriazepin-3-yl]-N-[3-(2H-tetrazol-5-yl)-phenyl]-acetamide]
105	CCOCCNc1cccc(NC(=O)CN2N=C(C3CCCCC3)c3ccccc3N(CC(=O)C(C)(C)C)C2=O)c1 [Example 42, 2-[5-Cyclohexyl-1-(3,3-dimethyl-2-oxo-butyl)-2-oxo-1,2-dihydro-3H-1,3,4-benzotriazepin-3-yl]-N-[3-(2-ethoxy-ethylamino)-phenyl)-acetamide]
11	CC(C)(C)C(=O)CN1C(=O)N(CC(=O)Nc2cccc(S(=O)(=O)CC(=O)O)c2)N=C(C2CCCCC2)c2ccccc21 [Example 50]
129	CNc1ccccc1NC(=O)CN1N=C(C2CCCCC2)c2ccccc2N(CC(=O)C(C)(C)C)C1=O [Example 101, 2-[5-Cyclohexyl-1-(3,3-dimethyl-2-oxo-butyl)-2-oxo-1,2-dihydro-3H-1,3,4-benzotriazepin-3-yl]-N-(2-methylamino-phenyl)-acetamide]
100	CC(C)(C)C(=O)CN1C(=O)N(CC(=O)Nc2cccc(CSC(=N)N)c2)N=C(C2CCCCC2)c2ccccc21 [Example 49, N-(3-Carbamimidoylsulfanylmethyl-phenyl)-2-[5-cyclohexyl-1-(3,3-dimethyl-2-oxo-butyl)-2-oxo-1,2-dihydro-3H-1,3,4-benzotriazepin-3-yl]-acetamide]

Compound	Kb [nM]
CC(C)(C)OC(=O)CN1C(=O)N(CC(=O)Nc2cccc(C(=O)O)c2)N=C(C2CCCCC2)c2ccccc21 [Example 95, 3-[2-(1-tert-Butoxycarbonylmethyl-5-cyclohexyl-2-oxo-1,2-dihydro-3H-1,3,4-benzotriazepin-3-yl)-acetylamino]-benzoic acid]	3.98

From patent US20050026911A1, “Benzotriazapinone salts and methods for using same” (priority 2003, published 2005)
